Laboratory results as given in patent publication US8748412B2, “Phenylalanine derivatives and their use as non-peptide GLP-1 receptor modulators” (Argusina Bioscience Inc., priority 2011, dated 2014).

Biological target: T1, human GLP1R (Homo sapiens, UniProt P43220)
T1 construct: expressed in transfected cells; host or cells: CHO cells (ATCC), transient transfection with pCMV-human GLP1R
Assay: Human GLP-1 receptor transfected cell assay (MRE/CRE-luciferase reporter gene, agonist activity)
Type: cell-based
Conditions: 6 h; conc. 3.16 μM; percentage of the activity of the control; read-out: Agonist Activity
Procedure, shortened: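 CHO cells transiently co-transfected with human GLP1R and MRE/CRE-driven luciferase reporter plasmids. Compound or GLP-1 (7-36 amide) standard dilution series added for 6 h at 37 °C, 5% CO2. Agonist activity read as Bright-Glo luciferase luminescence.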

T1 sequence (P43220 24-463): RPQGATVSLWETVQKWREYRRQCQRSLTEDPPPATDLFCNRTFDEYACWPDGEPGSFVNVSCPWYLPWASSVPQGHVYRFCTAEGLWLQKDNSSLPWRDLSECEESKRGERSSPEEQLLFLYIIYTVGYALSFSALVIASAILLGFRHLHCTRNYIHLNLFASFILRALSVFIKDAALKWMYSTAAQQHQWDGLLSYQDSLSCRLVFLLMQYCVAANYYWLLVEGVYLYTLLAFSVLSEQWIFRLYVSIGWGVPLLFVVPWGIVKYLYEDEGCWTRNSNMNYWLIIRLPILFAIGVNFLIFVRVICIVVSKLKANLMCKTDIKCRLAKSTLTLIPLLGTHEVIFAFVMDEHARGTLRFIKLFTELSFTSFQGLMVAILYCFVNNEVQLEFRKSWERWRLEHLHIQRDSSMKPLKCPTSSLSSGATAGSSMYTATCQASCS

| SMILES | activation at 3.16 µM [%] |
| --- | --- |
| Cc1ccc(-c2ccc(C(=O)NC(Cc3ccc(-c4noc(-c5ccc(NC(=O)OC(C)(C)C)cc5)n4)c(Br)c3)C(=O)O)o2)cc1 (stereo not shown) [Compound 13G] | > 60 |
| Cc1ccc(-c2ccc(C(=O)NC(Cc3ccc(-c4nnc(-c5ccc(NC(=O)OC(C)(C)C)cc5)o4)c(F)c3)C(=O)O)o2)cc1 (stereo not shown) [Compound 14F] | 40 to 60 |
| CC(C)(C)OC(=O)Nc1ccc(-c2nc(-c3ccc(CC(NC(=O)c4cncc(-c5ccc(F)cc5)c4)C(=O)O)cc3F)no2)cc1 (stereo not shown) [Compound 14H] | > 60 |

Same assay, conditions: 6 h; conc. 10 μM; percentage of the activity of the control; read-out: Agonist Activity

| SMILES | activation at 10 µM [%] |
| --- | --- |
| CC(C)(C)OC(=O)Nc1ccc(-c2nc(-c3ccc(CC(NS(=O)(=O)c4ccc(C(F)(F)F)cc4[N+](=O)[O-])C(=O)O)cc3F)no2)cc1 (stereo not shown) [Compound 11M] | > 60 |
| Cc1ccc(-c2cccc(C(=O)NC(Cc3ccc(-c4noc(-c5ccc(NC(=O)OC(C)(C)C)cc5)n4)c(F)c3)C(=O)O)c2)cc1 (stereo not shown) [Compound 11N] | > 60 |
| CC(C)(C)OC(=O)Nc1ccc(-c2nc(-c3ccc(CC(NC(=O)c4ccc(-c5ccc(C(F)(F)F)cc5)o4)C(=O)O)cc3F)no2)cc1 (stereo not shown) [Compound 11O] | > 60 |
| CC(C)(C)OC(=O)Nc1ccc(-c2nc(-c3ccc(CC(NC(=O)c4ccc(-c5ccc(F)cc5)s4)C(=O)O)cc3F)no2)cc1 (stereo not shown) [Compound 11P] | 20 to 40 |
| Cc1ccc(CN2CCN(C(=O)NC(Cc3ccc(-c4noc(-c5ccc(NC(=O)OC(C)(C)C)cc5)n4)c(F)c3)C(=O)O)CC2)cc1 (stereo not shown) [Compound 11Q] | > 60 |
| CC(C)(C)OC(=O)Nc1ccc(-c2nc(-c3ccc(CC(NC(=O)C4CCN(C(=O)OC(C)(C)C)CC4)C(=O)O)cc3F)no2)cc1 (stereo not shown) [Compound 11R] | > 60 |
| CC(C)(C)OC(=O)Nc1ccc(-c2nc(-c3ccc(CC(NC(=O)Nc4cc(-c5ccccc5)n[nH]4)C(=O)O)cc3F)no2)cc1 (stereo not shown) [Compound 11S] | > 60 |
| CC(C)(C)OC(=O)Nc1ccc(-c2nc(-c3ccc(CC(NC(=O)CN4CCN(C(=O)OC(C)(C)C)CC4)C(=O)O)cc3F)no2)cc1 (stereo not shown) [Compound 11T] | 40 to 60 |
| CN1CCN(c2ccc(C(=O)NC(Cc3ccc(-c4noc(-c5ccc(NC(=O)OC(C)(C)C)cc5)n4)c(F)c3)C(=O)O)o2)CC1 (stereo not shown) [Compound 11U] | 20 to 40 |
| CC(C)(C)OC(=O)Nc1ccc(-c2nc(-c3ccc(CC(NC(=O)c4cn(-c5ccc(C(C)(C)C)cc5)nn4)C(=O)O)cc3F)no2)cc1 (stereo not shown) [Compound 11V] | > 60 |
| CC(C)(C)OC(=O)Nc1ccc(-c2nc(-c3ccc(CC(NS(=O)(=O)N4CCN(C(=O)OC(C)(C)C)CC4)C(=O)O)cc3F)no2)cc1 (stereo not shown) [Compound 11W] | 40 to 60 |
| CC(C)(C)OC(=O)Nc1ccc(-c2nc(-c3ccc(CC(NS(=O)(=O)N4CCN(c5ccccc5)CC4)C(=O)O)cc3F)no2)cc1 (stereo not shown) [Compound 11X] | > 60 |
| CC(C)(C)OC(=O)Nc1ccc(-c2nc(-c3ccc(CC(NC(=O)c4cccc(N5CCCCC5)c4)C(=O)O)cc3F)no2)cc1 (stereo not shown) [Compound 11Y] | 20 to 40 |
| CC(C)(C)OC(=O)Nc1ccc(-c2nc(-c3ccc(CC(NS(=O)(=O)NCc4ccccc4)C(=O)O)cc3F)no2)cc1 (stereo not shown) [Compound 11Z] | 40 to 60 |
| CC(C)(C)OC(=O)Nc1ccc(-c2nc(-c3ccc(CC(NC(=O)N4CCN(c5ccc(C(F)(F)F)cc5)CC4)C(=O)O)cc3F)no2)cc1 (stereo not shown) [Compound 12A] | > 60 |
| CC(C)(C)OC(=O)Nc1ccc(-c2nc(-c3ccc(CC(NC(=O)N4CCN(c5cccc(Cl)c5)CC4)C(=O)O)cc3F)no2)cc1 (stereo not shown) [Compound 12C] | > 60 |
| CC(C)(C)OC(=O)Nc1ccc(-c2nc(-c3ccc(CC(NC(=O)N4CCN(c5ccccc5C#N)CC4)C(=O)O)cc3F)no2)cc1 (stereo not shown) [Compound 12D] | > 60 |
| CC(C)(C)OC(=O)Nc1ccc(-c2nc(-c3ccc(CC(NC(=O)N4CCN(c5cccc(C(F)(F)F)c5)CC4)C(=O)O)cc3F)no2)cc1 (stereo not shown) [Compound 12F] | > 60 |
| Cc1ccc(-c2cc(NC(=O)NC(Cc3ccc(-c4noc(-c5ccc(NC(=O)OC(C)(C)C)cc5)n4)c(F)c3)C(=O)O)[nH]n2)cc1 (stereo not shown) [Compound 12G] | > 60 |
| COc1ccc(-c2cc(NC(=O)NC(Cc3ccc(-c4noc(-c5ccc(NC(=O)OC(C)(C)C)cc5)n4)c(F)c3)C(=O)O)[nH]n2)cc1 (stereo not shown) [Compound 12H] | > 60 |
| CC(C)(C)OC(=O)Nc1ccc(-c2nc(-c3ccc(CC(NC(=O)Nc4cc(-c5ccc(F)cc5)n[nH]4)C(=O)O)cc3F)no2)cc1 (stereo not shown) [Compound 12I] | > 60 |
| CC(C)(C)OC(=O)Nc1ccc(-c2nc(-c3ccc(CC(NC(=O)N4CCN(c5ccc(Cl)cc5)CC4)C(=O)O)cc3F)no2)cc1 (stereo not shown) [Compound 13A] | > 60 |
| CC(C)(C)OC(=O)Nc1ccc(-c2nc(-c3ccc(CC(NC(=O)c4ccc(-c5ccccn5)s4)C(=O)O)cc3F)no2)cc1 (stereo not shown) [Compound 13B] | > 60 |
| CC(C)(C)OC(=O)Nc1ccc(-c2nc(-c3ccc(CC(NC(=O)Nc4ccccc4)C(=O)O)cc3F)no2)cc1 (stereo not shown) [Compound 13D] | 40 to 60 |

| SMILES | activation at 10 µM [%] |
| --- | --- |
| Cc1ccc(-c2ccc(C(=O)NC(Cc3ccc(-c4noc(-c5ccc(NC(=O)OC(C)(C)C)cc5)n4)c(F)c3F)C(=O)O)o2)cc1 (stereo not shown) [Compound 13F] | > 60 |
| CC(C)(C)OC(=O)Nc1ccc(-c2nc(-c3ccc(CC(NC(=O)Nc4ccc(C(F)(F)F)cc4)C(=O)O)cc3F)no2)cc1 (stereo not shown) [Compound 13H] | > 60 |
| Cc1ccc(-c2ccc(C(=O)NC(Cc3ccc(-c4noc(-c5ccc(NC(=O)OC(C)(C)C)cc5)n4)c(C#N)c3)C(=O)O)o2)cc1 (stereo not shown) [Compound 13I] | 40 to 60 |
| CC(C)(C)OC(=O)Nc1ccc(-c2nc(-c3ccc(CC(NC(=O)Nc4ccc(-c5ccc(C(F)(F)F)cc5)cn4)C(=O)O)cc3F)no2)cc1 (stereo not shown) [Compound 13K] | > 60 |
| Cc1cccc(-c2ccc(NC(=O)NC(Cc3ccc(-c4noc(-c5ccc(NC(=O)OC(C)(C)C)cc5)n4)c(F)c3)C(=O)O)nc2)c1 (stereo not shown) [Compound 13L] | > 60 |
| Cc1ccc(-c2ccc(NC(=O)NC(Cc3ccc(-c4noc(-c5ccc(NC(=O)OC(C)(C)C)cc5)n4)c(F)c3)C(=O)O)nc2)cc1Cl (stereo not shown) [Compound 13M] | > 60 |
| CC(C)(C)OC(=O)Nc1ccc(-c2nc(-c3ccc(CC(NC(=O)Nc4ccc(-c5ccc(OC(F)(F)F)cc5)cn4)C(=O)O)cc3F)no2)cc1 (stereo not shown) [Compound 13N] | > 60 |
| CC(C)c1ccc(-c2ccc(NC(=O)NC(Cc3ccc(-c4noc(-c5ccc(NC(=O)OC(C)(C)C)cc5)n4)c(F)c3)C(=O)O)nc2)cc1 (stereo not shown) [Compound 13O] | 40 to 60 |
| Cc1ccc(N2CCC(NC(=O)NC(Cc3ccc(-c4noc(-c5ccc(NC(=O)OC(C)(C)C)cc5)n4)c(F)c3)C(=O)O)C2)cc1 (stereo not shown) [Compound 13P] | > 60 |
| CC(C)(C)OC(=O)Nc1ccc(-c2nc(-c3ccc(CC(NC(=O)c4cccc(-c5ccc(Cl)cc5)c4)C(=O)O)cc3F)no2)cc1 (stereo not shown) [Compound 13Q] | > 60 |
| Cc1ccc(-c2cccc(NC(=O)NC(Cc3ccc(-c4noc(-c5ccc(NC(=O)OC(C)(C)C)cc5)n4)c(F)c3)C(=O)O)c2)cc1 (stereo not shown) [Compound 13R] | > 60 |
| CC(C)(C)OC(=O)Nc1ccc(-c2nc(-c3ccc(CC(NC(=O)Nc4cc(-c5ccc(F)c(Br)c5)n[nH]4)C(=O)O)cc3F)no2)cc1 (stereo not shown) [Compound 13S] | > 60 |
| CC(C)(C)OC(=O)Nc1ccc(-c2nc(-c3ccc(CC(NC(=O)Nc4ccc(-c5ccccc5F)cn4)C(=O)O)cc3F)no2)cc1 (stereo not shown) [Compound 13T] | > 60 |
| Cc1ccccc1-c1ccc(NC(=O)NC(Cc2ccc(-c3noc(-c4ccc(NC(=O)OC(C)(C)C)cc4)n3)c(F)c2)C(=O)O)nc1 (stereo not shown) [Compound 13U] | > 60 |
| CC(C)(C)OC(=O)Nc1ccc(-c2nc(-c3ccc(CC(NC(=O)Nc4ccc(-c5cccc(Cl)c5)cn4)C(=O)O)cc3F)no2)cc1 (stereo not shown) [Compound 13V] | > 60 |
| CC(C)(C)OC(=O)Nc1ccc(-c2nc(-c3ccc(CC(NC(=O)Nc4ccc(-c5cccc(F)c5)cn4)C(=O)O)cc3F)no2)cc1 (stereo not shown) [Compound 13W] | > 60 |
| CC(C)(C)OC(=O)Nc1ccc(-c2nc(-c3ccc(CC(NC(=O)Nc4ccc(-c5ccccc5)cn4)C(=O)O)cc3F)no2)cc1 (stereo not shown) [Compound 13X] | > 60 |
| COc1ccc(-c2ccc(NC(=O)NC(Cc3ccc(-c4noc(-c5ccc(NC(=O)OC(C)(C)C)cc5)n4)c(F)c3)C(=O)O)nc2)cc1 (stereo not shown) [Compound 13Y] | > 60 |
| CC(C)(C)OC(=O)Nc1ccc(-c2nc(-c3ccc(CC(NC(=O)Nc4ccc(-c5cccs5)cn4)C(=O)O)cc3F)no2)cc1 (stereo not shown) [Compound 13Z] | > 60 |
| Cc1ccc(-c2ccc(C(=O)NC(Cc3ccc(-c4noc(-c5ccc(NC(=O)OC(C)(C)C)cc5F)n4)c(F)c3)C(=O)O)o2)cc1 (stereo not shown) [Compound 14A] | > 60 |
| Cc1ccc(-c2cncc(C(=O)NC(Cc3ccc(-c4noc(-c5ccc(NC(=O)OC(C)(C)C)cc5)n4)c(F)c3)C(=O)O)c2)cc1 (stereo not shown) [Compound 14B] | > 60 |
| Cc1ccc(-c2cc(C(=O)NC(Cc3ccc(-c4noc(-c5ccc(NC(=O)OC(C)(C)C)cc5)n4)c(F)c3)C(=O)O)ccn2)cc1 (stereo not shown) [Compound 14C] | > 60 |
| Cc1ccc(-c2ccc(C(=O)NC(Cc3ccc(-c4noc(-c5ccc(NC(=O)OC(C)(C)C)c(C)c5)n4)c(F)c3)C(=O)O)o2)cc1 (stereo not shown) [Compound 14D] | 40 to 60 |
| COc1ccc(-c2cncc(C(=O)NC(Cc3ccc(-c4noc(-c5ccc(NC(=O)OC(C)(C)C)cc5)n4)c(F)c3)C(=O)O)c2)cc1 (stereo not shown) [Compound 14G] | > 60 |

Same assay, conditions: 6 h; concentration 3.16 μM; read-out: Activity (agonist), percentage of the activity of the control

| SMILES | activation at 3.16 µM [%] |
| --- | --- |
| Cc1ccc(-c2ccc(C(=O)N[C@@H](Cc3ccc(-c4noc(-c5ccc(NC(=O)OC(C)(C)C)cc5)n4)c(F)c3)C(=O)O)o2)cc1 [Compound 12E] | > 60 |
